For this assay, the target named is Multidrug resistance-associated protein 1 (Homo sapiens, UniProt P33527). As to the kind of experiment: viability protection against doxorubicin, MRP-1 line – cell-based, doxorubicin EC50 shift, dose response (AID 844).
Chain of Multidrug resistance-associated protein 1 (P33527 whole entry): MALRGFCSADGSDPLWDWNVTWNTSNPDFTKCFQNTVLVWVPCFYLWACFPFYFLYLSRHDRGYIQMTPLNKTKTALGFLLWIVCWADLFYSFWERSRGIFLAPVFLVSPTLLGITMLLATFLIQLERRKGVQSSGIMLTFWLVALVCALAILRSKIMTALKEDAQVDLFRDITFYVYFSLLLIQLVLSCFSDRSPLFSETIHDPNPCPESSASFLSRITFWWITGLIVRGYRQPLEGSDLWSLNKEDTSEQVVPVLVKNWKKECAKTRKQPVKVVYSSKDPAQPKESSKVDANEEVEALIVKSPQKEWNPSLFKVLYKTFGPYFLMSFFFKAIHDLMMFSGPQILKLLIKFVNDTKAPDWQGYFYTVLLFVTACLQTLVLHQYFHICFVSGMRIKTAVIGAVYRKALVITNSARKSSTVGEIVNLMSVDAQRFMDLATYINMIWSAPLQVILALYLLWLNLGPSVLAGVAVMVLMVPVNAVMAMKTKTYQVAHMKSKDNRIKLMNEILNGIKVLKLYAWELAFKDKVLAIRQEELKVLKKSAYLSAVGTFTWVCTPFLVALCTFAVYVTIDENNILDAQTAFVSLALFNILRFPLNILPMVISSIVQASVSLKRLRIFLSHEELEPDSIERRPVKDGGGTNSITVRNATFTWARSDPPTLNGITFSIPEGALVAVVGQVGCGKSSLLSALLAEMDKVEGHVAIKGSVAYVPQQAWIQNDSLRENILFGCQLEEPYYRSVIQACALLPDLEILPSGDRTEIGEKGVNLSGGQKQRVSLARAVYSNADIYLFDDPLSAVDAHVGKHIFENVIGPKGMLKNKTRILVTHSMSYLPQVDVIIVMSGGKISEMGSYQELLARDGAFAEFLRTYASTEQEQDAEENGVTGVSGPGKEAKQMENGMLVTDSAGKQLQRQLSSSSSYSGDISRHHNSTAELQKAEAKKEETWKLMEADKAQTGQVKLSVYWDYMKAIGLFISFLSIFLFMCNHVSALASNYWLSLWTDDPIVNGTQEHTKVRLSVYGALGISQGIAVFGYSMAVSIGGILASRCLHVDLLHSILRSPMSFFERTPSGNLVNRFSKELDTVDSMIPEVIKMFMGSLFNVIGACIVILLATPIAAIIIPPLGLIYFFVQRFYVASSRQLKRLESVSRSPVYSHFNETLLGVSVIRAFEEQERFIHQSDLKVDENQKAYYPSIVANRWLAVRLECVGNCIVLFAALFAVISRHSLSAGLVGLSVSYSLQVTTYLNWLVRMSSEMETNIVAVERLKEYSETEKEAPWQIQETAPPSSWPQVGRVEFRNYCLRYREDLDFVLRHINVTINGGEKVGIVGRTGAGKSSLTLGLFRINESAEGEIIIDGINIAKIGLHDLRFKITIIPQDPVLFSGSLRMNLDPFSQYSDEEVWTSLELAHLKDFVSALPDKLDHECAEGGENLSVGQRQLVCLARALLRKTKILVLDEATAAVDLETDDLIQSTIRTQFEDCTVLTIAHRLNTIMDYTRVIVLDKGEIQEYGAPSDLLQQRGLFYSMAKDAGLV
Consider `COc1ccc(N2C(=S)C(C#N)C(=O)NC2c2ccco2)cc1` (centres undefined) [2-(2-furanyl)-4-mercapto-3-(4-methoxyphenyl)-6-oxo-1,2-dihydropyrimidine-5-carbonitrile], for which the EC50 is 2.2 µM. For `N#CC(C#N)N=Nc1ccc(S(=O)(=O)N2CCCC2)cc1` [2-[(4-pyrrolidin-1-ylsulfonylphenyl)hydrazinylidene]propanedinitrile] the value was 5.88 µM.

Regarding `Cc1cccc(Cc2sc(Nc3ccccn3)nc2O)c1` [5-(3-Methyl-benzyl)-2-(pyridin-2-ylimino)-thiazolidin-4-one], the concentration giving a half-maximal response (EC50) stood at 6.22 µM. For `Oc1cc(N2CCC(O)(c3ccc(Br)cc3)CC2)c(O)n1-c1ccc(Cl)cc1` [3-[4-(4-bromophenyl)-4-hydroxy-1-piperidinyl]-1-(4-chlorophenyl)-2,5-pyrrolidinedione] the value was 7.39 µM; for `COc1ccc(NC(=O)Cc2c(O)n(-c3ccc(F)cc3)c(=S)n2NC(=O)c2ccccc2)cc1` [MLS000592105], 4.29 µM. Regarding `O=C(CCCCl)Nc1cc(=O)n(-c2ccccc2)[nH]1` [4-Chloro-N-(5-oxo-1-phenyl-4,5-dihydro-1H-pyrazol-3-yl)-butyramide], the EC50 turned out to be 8.43 µM. As to `COc1ccc(-n2c(O)cc(N3CCC(n4c(=O)[nH]c5ccccc54)CC3)c2O)cc1`, the concentration giving a half-maximal response (EC50) is 5.64 µM. For the compound `Oc1nc(Nc2ccc(Cl)cc2)sc1Cc1cc(Cl)ccc1Cl` [2-(4-chloroanilino)-5-(2,5-dichlorobenzyl)-2-thiazolin-4-one], the EC50 came to 5.86 µM. For `COC(=O)C(C=Nc1ccc(O)cc1)[N+](=O)[O-]` (centres undefined) [(Z)-3-(4-hydroxyanilino)-2-nitro-2-propenoic acid methyl ester] the value was 1.12 µM; for `C=CCN(C(=O)Nc1ccc(Cl)cc1)c1cc(O)n(-c2ccc(OC)cc2)c1O` [1-allyl-3-(4-chlorophenyl)-1-[2,5-diketo-1-(4-methoxyphenyl)pyrrolidin-3-yl]urea], 4.85 µM; for `CCN(C1CCCCC1)S(=O)(=O)c1cc(C)ccc1OC` [MLS000028538], 3.33 µM. `COc1ccc(CN=Nc2cc(C)nc(-n3nc(C)cc3C)n2)cc1` [SMR000212741]: the EC50 was found to be 0.656 µM.

`COc1ccccc1C1C(C(=O)c2sc(C)nc2C)C(=O)C(=O)N1CCN1CCOCC1` (centres undefined) [3-(2,4-dimethyl-1,3-thiazole-5-carbonyl)-4-hydroxy-2-(2-methoxyphenyl)-1-(2-morpholin-4-ylethyl)-2H-pyrrol-5-one]: the EC50 was 3.81 µM. For the compound `COc1cc(C2NC(=O)N=C(C)C2C(=O)OCc2ccc(C)cc2)cc(OC)c1O` (centres undefined) [(4-methylphenyl)methyl 4-(3,5-dimethoxy-4-oxidanyl-phenyl)-6-methyl-2-oxidanylidene-3,4-dihydro-1H-pyrimidine-5-carboxylate], the concentration for a half-maximal effect (EC50) amounted to 3.65 µM. For `CC1=CC([N+](=O)[O-])=CC(C=NNC(=O)c2cc(C)n[nH]2)C1=O` (centres undefined) [5-methyl-N'-[(E)-(5-methyl-3-nitro-6-oxo-1-cyclohexa-2,4-dienylidene)methyl]-1H-pyrazole-3-carbohydrazide], the EC50 is 2.87 µM. Next, `O=C1/C(=C/c2nc3ccccc3[nH]2)SC(=S)N1c1ccc(F)cc1` [MLS000331487]: 3.39 µM. For `COC1(OC)C(O)CCC(N=O)C1N=O` (centres undefined) [2,2-dimethoxy-3-nitroso-4-(oxidanylamino)cyclohex-3-en-1-ol], the EC50 came out at 4.16 µM.

In the case of `Cc1ccc(-n2[nH]c(C)c(C(c3ccccc3O)c3c(C)[nH]n(-c4ccc(C)cc4C)c3=O)c2=O)c(C)c1`, the concentration giving a half-maximal response (EC50) is 3.81 µM. Consider `COC(=O)C1=C(C)N=C(C)C(C(=O)OC)C1c1ccccc1OCc1c(C)n[o+]n1[O-]` (centres undefined), for which the EC50 came to 5.32 µM. Consider `Oc1nc(Nc2ccc(Cl)cc2)sc1Cc1cccc(Cl)c1Cl` [2-(4-chloroanilino)-5-(2,3-dichlorobenzyl)-2-thiazolin-4-one], for which the 50% effective concentration (EC50) is 6.41 µM.

Consider `C=CCc1c(C)nc(-c2ccccc2)nc1N=NC(C)c1ccc(N)cc1` (centres undefined) [(5-allyl-6-methyl-2-phenyl-pyrimidin-4-yl)-[1-(4-aminophenyl)ethylideneamino]amine], for which the EC50 came to 6.99 µM. Next, `O=C(Cc1sc(=O)n(-c2ccccc2)c1O)Nc1ccccc1` [2-(2,4-diketo-3-phenyl-thiazolidin-5-yl)-N-phenyl-acetamide]: 6.42 µM; `O=C(Nc1nc(O)cs1)c1ccccc1` [MLS000106877]: 3.78 µM; `N#CC1C(=N)SC(=N)C(C#N)C1c1cccc(O)c1` (centres undefined) [2,6-Diamino-4-(3-hydroxy-phenyl)-4H-thiopyran-3,5-dicarbonitrile]: 5.78 µM. For `CCN(CC)S(=O)(=O)c1ccc(N=NC(C#N)C#N)cc1` [4-[2-(dicyanomethylene)hydrazino]-N,N-diethylbenzenesulfonamide] the value was 3.7 µM; for `COc1cccc(C=Nn2c(O)csc2=S)c1O` [3-[[(E)-(5-methoxy-6-oxidanylidene-cyclohexa-2,4-dien-1-ylidene)methyl]amino]-2-sulfanylidene-1,3-thiazolidin-4-one], 7.08 µM. Consider `CCCCCCN1C(=O)C(=Cc2c[nH]nc2-c2ccccc2)SC1=S` [(5Z)-3-hexyl-5-[(5-phenyl-1H-pyrazol-4-yl)methylidene]-2-sulfanylidene-1,3-thiazolidin-4-one], for which the EC50 was determined as 4.16 µM. Regarding `C=CCc1c(C)nc(-c2ccccc2)nc1N=NCc1ccccc1` [6-methyl-2-phenyl-N-[(phenylmethylene)amino]-5-prop-2-enyl-4-pyrimidinamine], the EC50 amounted to 4.7 µM. In the case of `COc1ccc(CN=Nc2cc(OC)ncn2)cc1` [6-methoxy-N-[(4-methoxyphenyl)methylideneamino]-4-pyrimidinamine], the EC50 was 3.1 µM.

Consider `N#Cc1ccc(-n2c(O)c3[nH][nH]c(C(=O)c4ccc5ccccc5n4)c-3c2=O)cc1` [4-[(3aS,6aS)-4,6-dioxo-3-[oxo(2-quinolinyl)methyl]-3a,6a-dihydro-1H-pyrrolo[3,4-c]pyrazol-5-yl]benzonitrile], for which the concentration for a half-maximal effect (EC50) stood at 7 µM. `Cc1cccc(NC(=O)Cc2sc(=O)n(-c3ccccc3)c2O)c1` [2-(2,4-Dioxo-3-phenyl-thiazolidin-5-yl)-N-m-tolyl-acetamide]: the EC50 was determined as 5.15 µM. For `CC1CCN(S(=O)(=O)c2ccc(Br)s2)CC1` [1-(5-bromanylthiophen-2-yl)sulfonyl-4-methyl-piperidine] the value was 3.52 µM; for `O=C1C=CC([N+](=O)[O-])=CC1/C=N/n1cnc2ccccc21` (centres undefined) [2-[(E)-Benzoimidazol-1-yliminomethyl]-4-nitro-phenol], 3.61 µM; for `COc1cccc(C=NNC(=O)c2[nH][nH]c(=O)c2C)c1O` [N'-[(E)-(5-methoxy-6-oxidanylidene-cyclohexa-2,4-dien-1-ylidene)methyl]-4-methyl-5-oxidanylidene-1,4-dihydropyrazole-3-carbohydrazide], 6.47 µM. For `CCOC(=O)C1C(C)=Nc2sc(C(=O)c3ccc(C)cc3)c(N)c2C1c1ccc(C(=O)OC)cc1` (centres undefined) [3-Amino-4-(4-methoxycarbonyl-phenyl)-6-methyl-2-(4-methyl-benzoyl)-4,7-dihydro-thieno[2,3-b]pyridine-5-carboxylic acid ethyl ester], the 50% effective concentration (EC50) turned out to be 1.96 µM. `O=C1CCCC(=O)C1=NNc1ccc2c(c1)OCO2` [2-(1,3-benzodioxol-5-ylhydrazinylidene)cyclohexane-1,3-dione]: the EC50 amounted to 6.29 µM. Regarding `O=C1CC(=O)CC(c2ccc(Cl)cc2)C1` [5-(4-chlorophenyl)-3-hydroxy-1-cyclohex-2-enone], the 50% effective concentration (EC50) was 5.6 µM. For the compound `O=C1Nc2ccccc2[C@@]12N[C@@H](Cc1ccc(O)cc1)c1c2c(O)n(-c2ccc(F)cc2)c1O` [(1S,3R,3aR,6aS)-5-(4-fluorophenyl)-1-(4-hydroxybenzyl)spiro[1,2,3a,6a-tetrahydropyrrolo[3,4-c]pyrrole-3,3'-indoline]-2',4,6-trione], the EC50 was 7.87 µM. Next, `CCOC(=O)C1C(C)=Nc2ncnn2C1c1cccnc1` (centres undefined): 4.5 µM; `O=C(O)c1cccc(-n2c(O)c3c(c2O)CC(Cl)=CC3)c1` [3-[5-chloranyl-1,3-bis(oxidanylidene)-3a,4,7,7a-tetrahydroisoindol-2-yl]benzoic acid]: 7.97 µM; `Cc1cc(N=NCc2ccccc2Cl)nc(NCc2ccccc2)n1` [2-N-benzyl-4-N-[(2-chlorophenyl)methylideneamino]-6-methylpyrimidine-2,4-diamine]: 1.08 µM. Turning to `Cc1ccccc1NC(=O)Cc1sc(=O)n(-c2ccccc2)c1O` [2-(2,4-Dioxo-3-phenyl-thiazolidin-5-yl)-N-o-tolyl-acetamide], the EC50 is 7.29 µM.

Take `Cc1ccc(C)c(C(=O)C2C(=O)C(=O)N(CCCn3ccnc3)C2c2ccncc2)c1` (centres undefined) [(4E)-4-[(2,5-dimethylphenyl)-hydroxy-methylene]-1-(3-imidazol-1-ylpropyl)-5-(4-pyridyl)pyrrolidine-2,3-quinone]: the EC50 was determined as 6.31 µM. `Cc1cc(=O)oc2c1ccc1oc(C(N=O)c3ccccc3)c(C)c12` (centres undefined) [4,9-dimethyl-8-(N-oxidanyl-C-phenyl-carbonimidoyl)furo[2,3-h]chromen-2-one]: the EC50 is 7.02 µM.

As to `COc1ccc(NC(=O)Cc2c(O)n(-c3ccc(Cl)cc3)c(=S)n2NC(=O)c2cccc(F)c2)cc1` [MLS000590171], the EC50 turned out to be 3.59 µM. Consider `O=[N+]([O-])c1ccc(N=NCc2ccccc2)c(F)c1` [2-fluoranyl-4-nitro-N-[(phenylmethylidene)amino]aniline], for which the concentration for a half-maximal effect (EC50) came to 3.44 µM.

`COc1ccc(-n2c(O)c(CC(=O)Nc3ccc(F)cc3)n(CCc3cccs3)c2=O)cc1` [2-[2,5-diketo-1-(4-methoxyphenyl)-3-[2-(2-thienyl)ethyl]imidazolidin-4-yl]-N-(4-fluorophenyl)acetamide]: the concentration for a half-maximal effect (EC50) was 4.38 µM. As for `O=c1[nH]c2ccccc2n1C1CCN(c2cc(O)n(-c3ccc(F)cc3)c2O)CC1`, the 50% effective concentration (EC50) came out at 7.59 µM. For `CCOC(=O)C1C(C)=Nc2sc(C(=O)c3ccc(OC)cc3)c(N)c2C1c1ccc(C(=O)OC)cc1` (centres undefined) [3-Amino-2-(4-methoxy-benzoyl)-4-(4-methoxycarbonyl-phenyl)-6-methyl-4,7-dihydro-thieno[2,3-b]pyridine-5-carboxylic acid ethyl ester], the concentration giving a half-maximal response (EC50) is 1.1 µM.
